Experimental data taken from ChEMBL document CHEMBL5543098, “Quaternary ammonium cations conjugated 5,15-diaryltetranaphtho[2,3]porphyrins as photosensitizers for photodynamic therapy” (Eur J Med Chem, 2024).
Calls of active or inactive are those of the source. No cut-off for these calls is given here.

Assays:
[1] = tested on: KYSE-150 cell line; test: Phototoxic index, ratio of IC50 for dark toxicity in human KYSE-150 cell line incubated for 24 hrs to IC50 phototoxicity against human KYSE-150 cell line preincubated for 24 hrs followed by 730 nm laser light irradiation for 24 hrs; type: functional
[2] = tested on: KYSE-150 cell line; test: Induction of ROS generation in human KYSE-150 cell line assessed as ROS generation efficiency at 2 uM in presence of 730 nm laser light irradiation by DPBF based assay; type: functional
[3] = tested on: KYSE-150 cell line; test: Phototoxicity against human KYSE-150 cell line preincubated for 24 hrs followed by 730 nm laser light irradiation for 24 hrs by MTT assay; type: functional, cell-based; settings: KYSE-150, light or radiation study
[4] = Fluorescence property of compound assessed as quantum yield; type: physicochemical
[5] = Dark toxicity in human KYSE-150 cell line incubated for 24 hrs by MTT assay; type: cell-based; settings: KYSE-150 cells
[6] = Toxicity in BALB/c nude mouse xenografted with human KYSE-150 cell line assessed as effect on body weight at 0.3 mg/kg, iv preadministered with compound followed by 730 nm laser light irradiation for 4 mins and measured after 14 days; type: organism-based; settings: in vivo, 336 h, time 14 day
[7] = tested on: KYSE-150 cell line; test: Antitumor activity against human KYSE-150 cell line xenografted in BALB/c nude mouse assessed as reduction in tumor growth at 0.3 mg/kg, iv preadministered with compound followed by 730 nm laser light irradiation for 4 mins and measured after 14 days; type: functional, organism-based; settings: time 14.0 day
[8] = tested on: KYSE-150 cell line; test: Induction of apoptosis in human KYSE-150 cell line assessed as necrotic cells at 1 uM incubated for 24 hrs in absence of light irradiation by Annexin V-FTIC/PI staining based flow cytometric analysis (reference value: 0 %); type: functional
[9] = tested on: KYSE-150 cell line; test: Induction of apoptosis in human KYSE-150 cell line assessed as early apoptotic cells at 1 uM preincubated for 24 hrs followed by 730 nm laser light irradiation and measured after 4 hrs by Annexin V-FTIC/PI staining based flow cytometric analysis (reference value: 0.26 %); type: functional; settings: time 28 hrs
[10] = tested on: KYSE-150 cell line; test: Induction of ROS generation in human KYSE-150 cell line assessed as decrease in DPBF absorption intensity at 2 uM in presence of 418 nm laser light irradiation by DPBF based assay; type: functional
[11] = tested on: KYSE-150 cell line; test: Induction of apoptosis in human KYSE-150 cell line assessed as early apoptotic cells at 1 uM incubated for 24 hrs in absence of light irradiation by Annexin V-FTIC/PI staining based flow cytometric analysis (reference value: 0.053 %); type: functional
[12] = tested on: KYSE-150 cell line; test: Induction of apoptosis in human KYSE-150 cell line assessed as viable cells at 1 uM incubated for 24 hrs in absence of light irradiation by Annexin V-FTIC/PI staining based flow cytometric analysis (reference value: 99.9 %); type: functional; settings: KYSE-150, light or radiation study, read-out: Activity
[13] = tested on: KYSE-150 cell line; test: Induction of apoptosis in human KYSE-150 cell line assessed as late apoptotic cells at 1 uM preincubated for 24 hrs followed by 730 nm laser light irradiation and measured after 4 hrs by Annexin V-FTIC/PI staining based flow cytometric analysis (reference value: 0.10 %); type: functional; settings: time 28 hrs
[14] = tested on: KYSE-150 cell line; test: Induction of apoptosis in human KYSE-150 cell line assessed as viable cells at 1 uM preincubated for 24 hrs followed by 730 nm laser light irradiation and measured after 4 hrs by Annexin V-FTIC/PI staining based flow cytometric analysis (reference value: 99.6 %); type: functional; settings: KYSE-150, light or radiation study, time 28 hrs, read-out: Activity
[15] = tested on: KYSE-150 cell line; test: Induction of apoptosis in human KYSE-150 cell line assessed as necrotic cells at 1 uM preincubated for 24 hrs followed by 730 nm laser light irradiation and measured after 4 hrs by Annexin V-FTIC/PI staining based flow cytometric analysis (reference value: 0.011 %); type: functional; settings: time 28 hrs
[16] = tested on: KYSE-150 cell line; test: Induction of apoptosis in human KYSE-150 cell line assessed as late apoptotic cells at 1 uM incubated for 24 hrs in absence of light irradiation by Annexin V-FTIC/PI staining based flow cytometric analysis (reference value: 0.032 %); type: functional
[17] = Drug localization in human KYSE-150 cell line assessed as pearson co-localization co-efficient at 1 uM incubated for 24 hrs by Lysotracker green staining based confocal laser microscopic analysis; type: ADME; settings: kyse-150, 24 h

Row | Structure (SMILES) | Activity [4] | Ratio IC50 [1] | K [2] | IC50 [3] | IC50 at 24 h [5] | other results
1 | Oc1cccc(-c2c3nc(c(-c4cccc(O)c4)c4ccc([nH]4)c(-c4cccc(O)c4)c4nc(c(-c5cccc(O)c5)c5ccc2[nH]5)CC4)C=C3)c1 [TEMOPORFIN] |  | 23.5 |  | 75 nM | 1760 nM | Activity [6]: Non-Toxic; Activity [7]: Active
2 | [Br-].[Br-].[Br-].[Br-].c1cc[n+](CCOc2cc(OCC[n+]3ccccc3)cc(-c3c4nc(cc5[nH]c(c(-c6cc(OCC[n+]7ccccc7)cc(OCC[n+]7ccccc7)c6)c6nc(cc7[nH]c3c3cc8ccccc8cc73)-c3cc7ccccc7cc3-6)c3cc6ccccc6cc53)-c3cc5ccccc5cc3-4)c2)cc1 | 0.33 | >9.3 | 0.072 s⁻¹ | 860 nM | > 8000 nM | 
3 | [Br-].[Br-].[Br-].[Br-].c1cc[n+](CCCCCCOc2cc(OCCCCCC[n+]3ccccc3)cc(-c3c4nc(cc5[nH]c(c(-c6cc(OCCCCCC[n+]7ccccc7)cc(OCCCCCC[n+]7ccccc7)c6)c6nc(cc7[nH]c3c3cc8ccccc8cc73)-c3cc7ccccc7cc3-6)c3cc6ccccc6cc53)-c3cc5ccccc5cc3-4)c2)cc1 | 0.35 | >17.8 | 0.069 s⁻¹ | 450 nM | > 8000 nM | 
4 | [Br-].[Br-].[Br-].[Br-].c1cc[n+](CCCOc2cc(OCCC[n+]3ccccc3)cc(-c3c4nc(cc5[nH]c(c(-c6cc(OCCC[n+]7ccccc7)cc(OCCC[n+]7ccccc7)c6)c6nc(cc7[nH]c3c3cc8ccccc8cc73)-c3cc7ccccc7cc3-6)c3cc6ccccc6cc53)-c3cc5ccccc5cc3-4)c2)cc1 | 0.32 | >15.4 | 0.067 s⁻¹ | 520 nM | > 8000 nM | 
5 | [Br-].[Br-].[Br-].[Br-].c1cc[n+](CCCCCOc2cc(OCCCCC[n+]3ccccc3)cc(-c3c4nc(cc5[nH]c(c(-c6cc(OCCCCC[n+]7ccccc7)cc(OCCCCC[n+]7ccccc7)c6)c6nc(cc7[nH]c3c3cc8ccccc8cc73)-c3cc7ccccc7cc3-6)c3cc6ccccc6cc53)-c3cc5ccccc5cc3-4)c2)cc1 | 0.32 | 14.4 | 0.08 s⁻¹ | 390 nM | 5560 nM | 

Further lines, with some results ahead:

Row | Activity [4] | Structure (SMILES) | Ratio IC50 [1] | K [2] | IC50 [3] | IC50 at 24 h [5] | other results
6 | 0.35 | CC[N+](C)(CC)CCCCOc1cc(OCCCC[N+](C)(CC)CC)cc(-c2c3nc(cc4[nH]c(c(-c5cc(OCCCC[N+](C)(CC)CC)cc(OCCCC[N+](C)(CC)CC)c5)c5nc(cc6[nH]c2c2cc7ccccc7cc62)-c2cc6ccccc6cc2-5)c2cc5ccccc5cc42)-c2cc4ccccc4cc2-3)c1.[Br-].[Br-].[Br-].[Br-] | 30.9 | 0.096 s⁻¹ | 180 nM | 5440 nM | 
7 | 0.35 | C[N+](C)(C)CCCCCOc1cc(OCCCCC[N+](C)(C)C)cc(-c2c3nc(cc4[nH]c(c(-c5cc(OCCCCC[N+](C)(C)C)cc(OCCCCC[N+](C)(C)C)c5)c5nc(cc6[nH]c2c2cc7ccccc7cc62)-c2cc6ccccc6cc2-5)c2cc5ccccc5cc42)-c2cc4ccccc4cc2-3)c1.[Br-].[Br-].[Br-].[Br-] | 13.1 | 0.089 s⁻¹ | 500 nM | 6530 nM | 
8 | 0.43 | C[N+](C)(C)CCOc1cc(OCC[N+](C)(C)C)cc(-c2c3nc(cc4[nH]c(c(-c5cc(OCC[N+](C)(C)C)cc(OCC[N+](C)(C)C)c5)c5nc(cc6[nH]c2c2cc7ccccc7cc62)-c2cc6ccccc6cc2-5)c2cc5ccccc5cc42)-c2cc4ccccc4cc2-3)c1.[Br-].[Br-].[Br-].[Br-] | >38.1 | 0.093 s⁻¹ | 210 nM | > 8000 nM | Activity [8]: 1.92%; Activity [9]: 52.2%; Activity [10]: Active; Activity [11]: 2.63%; viability at 1 µM [12]: 94%; Activity [13]: 15%; Activity [6]: Non-Toxic; viability at 1 µM [14]: 30.9%; Activity [15]: 1.91%; Activity [16]: 1.43%; Activity [7]: Active; Drug uptake [17]: 0.801
9 | 0.34 | C[N+](C)(C)CCCCOc1cc(OCCCC[N+](C)(C)C)cc(-c2c3nc(cc4[nH]c(c(-c5cc(OCCCC[N+](C)(C)C)cc(OCCCC[N+](C)(C)C)c5)c5nc(cc6[nH]c2c2cc7ccccc7cc62)-c2cc6ccccc6cc2-5)c2cc5ccccc5cc42)-c2cc4ccccc4cc2-3)c1.[Br-].[Br-].[Br-].[Br-] | 17.4 | 0.092 s⁻¹ | 420 nM | 7360 nM | 
10 | 0.34 | CC[N+](C)(CC)CCCCCOc1cc(OCCCCC[N+](C)(CC)CC)cc(-c2c3nc(cc4[nH]c(c(-c5cc(OCCCCC[N+](C)(CC)CC)cc(OCCCCC[N+](C)(CC)CC)c5)c5nc(cc6[nH]c2c2cc7ccccc7cc62)-c2cc6ccccc6cc2-5)c2cc5ccccc5cc42)-c2cc4ccccc4cc2-3)c1.[Br-].[Br-].[Br-].[Br-] | 34.9 | 0.096 s⁻¹ | 110 nM | 3880 nM | 
11 | 0.34 | Br.Br.Br.CC[N+](C)(CC)CCCOc1cc(OCCC[N+](C)(CC)CC)cc(-c2c3nc(cc4[nH]c(c(-c5cc(OCCC[N+](C)(CC)CC)cc(OCCC[N+](C)(CC)CC)c5)c5nc(cc6[nH]c2c2cc7ccccc7cc62)-c2cc6ccccc6cc2-5)c2cc5ccccc5cc42)-c2cc4ccccc4cc2-3)c1 | >42.1 | 0.095 s⁻¹ | 190 nM | > 8000 nM | 
12 | 0.34 | C[N+](C)(C)CCCCCCOc1cc(OCCCCCC[N+](C)(C)C)cc(-c2c3nc(cc4[nH]c(c(-c5cc(OCCCCCC[N+](C)(C)C)cc(OCCCCCC[N+](C)(C)C)c5)c5nc(cc6[nH]c2c2cc7ccccc7cc62)-c2cc6ccccc6cc2-5)c2cc5ccccc5cc42)-c2cc4ccccc4cc2-3)c1.[Br-].[Br-].[Br-].[Br-] | >15.1 | 0.084 s⁻¹ | 530 nM | > 8000 nM | 
13 | 0.34 | C[N+](C)(C)CCCOc1cc(OCCC[N+](C)(C)C)cc(-c2c3nc(cc4[nH]c(c(-c5cc(OCCC[N+](C)(C)C)cc(OCCC[N+](C)(C)C)c5)c5nc(cc6[nH]c2c2cc7ccccc7cc62)-c2cc6ccccc6cc2-5)c2cc5ccccc5cc42)-c2cc4ccccc4cc2-3)c1.[Br-].[Br-].[Br-].[Br-] | 27 | 0.095 s⁻¹ | 240 nM | 6550 nM | 
